For data set [1], the target named is Muscarinic acetylcholine receptor M2 (Rattus norvegicus, UniProt P10980). The experiment in a line: Positive allosteric modulation of rat muscarinic M2 receptor assessed as acetylcholine response.
The target in data set [2] is Muscarinic acetylcholine receptor M1 (Rattus norvegicus, UniProt P08482). The experiment in a line: Positive allosteric modulation of rat muscarinic M1 receptor assessed as acetylcholine response.
Data set [3] addresses Muscarinic acetylcholine receptor M2 (Homo sapiens) (UniProt P08172). As to the kind of experiment: Positive allosteric modulation of human muscarinic M2 receptor expressed in CHO-K1 cells assessed as leftward shift in acetylcholine response treated for 144 secs prior to acetylcholine addition measured for 5 mins by Fluo-4-AM based calcium mobilization assay relative to control. The format is functional, cell-based.

In data set [4] the target is Muscarinic acetylcholine receptor M4 (Rattus norvegicus) (UniProt P08485). The experiment in a line: Positive allosteric modulation of rat muscarinic M4 receptor assessed as acetylcholine response at 10 uM relative to acetylcholine.
The target of data set [5] is T1, Muscarinic acetylcholine receptor M4 (Homo sapiens) (UniProt P08173).
T1 sequence (whole entry): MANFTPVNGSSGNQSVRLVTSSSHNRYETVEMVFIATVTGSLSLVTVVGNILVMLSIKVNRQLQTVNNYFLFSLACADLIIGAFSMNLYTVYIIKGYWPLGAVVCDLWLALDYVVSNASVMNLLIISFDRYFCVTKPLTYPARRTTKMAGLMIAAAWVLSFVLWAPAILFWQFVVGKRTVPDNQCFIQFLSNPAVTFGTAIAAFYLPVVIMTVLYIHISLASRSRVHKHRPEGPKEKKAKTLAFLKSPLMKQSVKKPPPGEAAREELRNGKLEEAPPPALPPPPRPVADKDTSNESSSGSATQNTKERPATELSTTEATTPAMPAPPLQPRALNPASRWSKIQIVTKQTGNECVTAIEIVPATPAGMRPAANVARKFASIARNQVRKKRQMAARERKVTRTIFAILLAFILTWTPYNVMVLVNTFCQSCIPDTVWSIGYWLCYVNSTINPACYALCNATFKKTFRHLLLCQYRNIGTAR
The experiment in a line: Positive allosteric modulation of human muscarinic M4 receptor expressed in CHO-K1 cells assessed as leftward shift in acetylcholine response treated for 144 secs prior to acetylcholine addition measured for 5 mins by Fluo-4-AM based calcium mobilization assay relative to control. The format is functional, cell-based.

Data set [6] addresses Muscarinic acetylcholine receptor M1 (Rattus norvegicus) (UniProt P08482). As to the kind of experiment: Positive allosteric modulation of rat muscarinic M1 receptor assessed as acetylcholine response relative to control.
Data set [7] deals with T2, Muscarinic acetylcholine receptor M4 (Homo sapiens, UniProt P08173).
T2 sequence (P08173 whole entry): T1 sequence (whole entry)
As to the kind of experiment: Positive allosteric modulation of human muscarinic M4 receptor expressed in CHO-K1 cells assessed as leftward shift in acetylcholine response treated for 144 secs prior to acetylcholine addition measured for 5 mins by Fluo-4-AM based calcium mobilization assay. It counts as functional, cell-based. The following applies: read-out: EC50. For orientation: Calcium flux is commonly read through the fluorescence of an indicator in the cells.

The target of data set [8] is Muscarinic acetylcholine receptor M5 (Rattus norvegicus, UniProt P08911). As to the kind of experiment: Positive allosteric modulation of rat muscarinic M5 receptor assessed as acetylcholine response.
Muscarinic acetylcholine receptor M5 (Rattus norvegicus, UniProt P08911), sequence (P08911 whole entry): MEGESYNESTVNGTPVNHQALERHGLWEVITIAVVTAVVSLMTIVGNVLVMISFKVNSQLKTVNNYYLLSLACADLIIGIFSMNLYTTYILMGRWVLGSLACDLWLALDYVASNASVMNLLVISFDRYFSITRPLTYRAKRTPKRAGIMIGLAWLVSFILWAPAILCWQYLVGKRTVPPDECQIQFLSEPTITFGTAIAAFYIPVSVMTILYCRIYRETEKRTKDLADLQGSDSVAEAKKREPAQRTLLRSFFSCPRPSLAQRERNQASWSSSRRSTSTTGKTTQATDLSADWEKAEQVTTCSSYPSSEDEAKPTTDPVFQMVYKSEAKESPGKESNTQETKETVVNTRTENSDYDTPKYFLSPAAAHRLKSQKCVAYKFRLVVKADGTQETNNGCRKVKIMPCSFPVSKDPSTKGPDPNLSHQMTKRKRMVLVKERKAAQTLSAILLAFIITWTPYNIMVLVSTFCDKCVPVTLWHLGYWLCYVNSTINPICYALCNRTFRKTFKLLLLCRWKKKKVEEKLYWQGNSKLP
Data set [9] deals with T1, Muscarinic acetylcholine receptor M4 (Homo sapiens). As to the kind of experiment: Positive allosteric modulation of human muscarinic M4 receptor expressed in CHO-K1 cells assessed as leftward shift in acetylcholine response at 10 uM treated for 144 secs prior to acetylcholine addition measured for 5 mins by Fluo-4-AM based calcium mobilization assay relative to acetylcholine. It counts as functional, cell-based.

For data set [10], the target named is Muscarinic acetylcholine receptor M3 (Rattus norvegicus, UniProt P08483). As to the kind of experiment: Positive allosteric modulation of rat muscarinic M3 receptor assessed as acetylcholine response.
Muscarinic acetylcholine receptor M3 (Rattus norvegicus, UniProt P08483), sequence (P08483 whole entry): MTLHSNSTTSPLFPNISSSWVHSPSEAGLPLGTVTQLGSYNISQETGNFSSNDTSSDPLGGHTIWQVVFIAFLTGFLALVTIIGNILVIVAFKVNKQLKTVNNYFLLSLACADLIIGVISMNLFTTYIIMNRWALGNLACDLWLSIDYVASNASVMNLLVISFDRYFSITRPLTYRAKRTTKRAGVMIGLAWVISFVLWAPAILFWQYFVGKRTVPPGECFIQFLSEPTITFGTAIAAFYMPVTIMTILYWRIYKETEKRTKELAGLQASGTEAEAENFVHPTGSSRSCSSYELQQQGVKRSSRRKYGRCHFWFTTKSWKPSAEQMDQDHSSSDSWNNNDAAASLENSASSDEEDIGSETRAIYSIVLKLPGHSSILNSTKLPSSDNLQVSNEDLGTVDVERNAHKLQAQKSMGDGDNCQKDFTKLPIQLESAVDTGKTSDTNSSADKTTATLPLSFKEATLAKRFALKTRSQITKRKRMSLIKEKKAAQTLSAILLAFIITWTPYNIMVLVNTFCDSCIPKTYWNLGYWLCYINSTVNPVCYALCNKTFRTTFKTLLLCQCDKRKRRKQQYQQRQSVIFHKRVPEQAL
Data set [11] concerns the target Muscarinic acetylcholine receptor M1 (Homo sapiens) (UniProt P11229). The experiment in a line: Positive allosteric modulation of human muscarinic M1 receptor expressed in CHO-K1 cells assessed as leftward shift in acetylcholine response treated for 144 secs prior to acetylcholine addition measured for 5 mins by Fluo-4-AM based calcium mobilization assay relative to control. The format is functional, cell-based.

The target in data set [12] is Muscarinic acetylcholine receptor M5 (Homo sapiens, UniProt P08912). As to the kind of experiment: Positive allosteric modulation of human muscarinic M5 receptor expressed in CHO-K1 cells assessed as leftward shift in acetylcholine response treated for 144 secs prior to acetylcholine addition measured for 5 mins by Fluo-4-AM based calcium mobilization assay. The format is functional, cell-based.
Muscarinic acetylcholine receptor M5 (Homo sapiens, UniProt P08912), sequence (P08912 whole entry): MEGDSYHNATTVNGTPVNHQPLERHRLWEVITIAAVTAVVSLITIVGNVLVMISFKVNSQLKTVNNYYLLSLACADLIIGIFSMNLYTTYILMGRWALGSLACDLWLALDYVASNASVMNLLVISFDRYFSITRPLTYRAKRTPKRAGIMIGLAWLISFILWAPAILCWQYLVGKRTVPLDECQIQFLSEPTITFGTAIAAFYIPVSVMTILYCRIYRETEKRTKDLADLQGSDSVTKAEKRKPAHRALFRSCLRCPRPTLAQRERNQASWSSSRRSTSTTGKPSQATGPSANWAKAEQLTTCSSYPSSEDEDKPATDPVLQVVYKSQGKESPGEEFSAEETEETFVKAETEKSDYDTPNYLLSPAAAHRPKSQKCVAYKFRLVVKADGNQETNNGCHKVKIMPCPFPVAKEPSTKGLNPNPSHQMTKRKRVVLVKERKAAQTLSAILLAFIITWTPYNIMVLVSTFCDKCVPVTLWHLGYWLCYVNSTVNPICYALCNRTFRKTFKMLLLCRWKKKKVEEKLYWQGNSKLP

Data set [13] concerns the target Muscarinic acetylcholine receptor M1 (Homo sapiens, UniProt P11229). As to the kind of experiment: Positive allosteric modulation of human muscarinic M1 receptor expressed in CHO-K1 cells assessed as leftward shift in acetylcholine response treated for 144 secs prior to acetylcholine addition measured for 5 mins by Fluo-4-AM based calcium mobilization assay. The format is functional, cell-based.

Data set [14] has as its target Muscarinic acetylcholine receptor M2 (Rattus norvegicus) (UniProt P10980). As to the kind of experiment: Positive allosteric modulation of rat muscarinic M2 receptor assessed as acetylcholine response relative to control.
The test system of data set [15] is Plasma. As to the kind of experiment: Fraction unbound in human plasma. The format is ADME, cell-free.
In data set [16] the target is Muscarinic acetylcholine receptor M3 (Homo sapiens, UniProt P20309). As to the kind of experiment: Positive allosteric modulation of human muscarinic M3 receptor expressed in CHO-K1 cells assessed as leftward shift in acetylcholine response treated for 144 secs prior to acetylcholine addition measured for 5 mins by Fluo-4-AM based calcium mobilization assay. It counts as functional, cell-based.
Muscarinic acetylcholine receptor M3 (Homo sapiens, UniProt P20309), sequence (P20309 whole entry): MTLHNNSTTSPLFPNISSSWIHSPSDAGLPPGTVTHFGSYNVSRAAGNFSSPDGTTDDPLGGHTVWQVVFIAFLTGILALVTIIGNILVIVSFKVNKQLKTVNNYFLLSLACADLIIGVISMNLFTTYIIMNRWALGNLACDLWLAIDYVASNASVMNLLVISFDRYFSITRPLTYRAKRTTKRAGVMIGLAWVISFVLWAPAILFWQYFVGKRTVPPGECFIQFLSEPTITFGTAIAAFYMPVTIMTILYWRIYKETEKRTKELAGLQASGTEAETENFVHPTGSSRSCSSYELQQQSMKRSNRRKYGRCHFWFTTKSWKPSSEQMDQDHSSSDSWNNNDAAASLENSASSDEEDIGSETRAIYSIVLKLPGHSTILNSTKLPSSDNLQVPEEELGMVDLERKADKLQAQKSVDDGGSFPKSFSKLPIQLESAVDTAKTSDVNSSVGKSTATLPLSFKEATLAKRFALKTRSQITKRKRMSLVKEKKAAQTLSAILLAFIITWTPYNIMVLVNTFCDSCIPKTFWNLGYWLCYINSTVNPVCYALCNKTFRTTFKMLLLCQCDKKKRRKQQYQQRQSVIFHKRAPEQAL

Data set [17] has as its system Plasma. As to the kind of experiment: Fraction unbound in rat plasma. The format is ADME, cell-free.
In data set [18] the target is T3, Muscarinic acetylcholine receptor M4 (Rattus norvegicus, UniProt P08485).
T3 sequence (P08485 whole entry): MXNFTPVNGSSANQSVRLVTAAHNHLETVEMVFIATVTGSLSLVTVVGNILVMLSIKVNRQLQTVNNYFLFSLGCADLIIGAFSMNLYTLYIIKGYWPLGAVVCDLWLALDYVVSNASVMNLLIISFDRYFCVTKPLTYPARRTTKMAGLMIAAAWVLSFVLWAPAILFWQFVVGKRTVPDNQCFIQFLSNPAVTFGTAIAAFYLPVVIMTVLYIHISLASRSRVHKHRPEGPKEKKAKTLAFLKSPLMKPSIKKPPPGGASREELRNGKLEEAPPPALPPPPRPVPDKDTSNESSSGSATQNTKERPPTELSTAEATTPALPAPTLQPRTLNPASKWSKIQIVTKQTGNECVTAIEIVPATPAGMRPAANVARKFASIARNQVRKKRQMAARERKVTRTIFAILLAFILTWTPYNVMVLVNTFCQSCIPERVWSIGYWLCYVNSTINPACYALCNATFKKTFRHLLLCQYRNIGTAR
The experiment in a line: Positive allosteric modulation of rat muscarinic M4 receptor assessed as acetylcholine response.

Data set [19] deals with Muscarinic acetylcholine receptor M2 (Homo sapiens, UniProt P08172). The experiment in a line: Positive allosteric modulation of human muscarinic M2 receptor expressed in CHO-K1 cells assessed as leftward shift in acetylcholine response treated for 144 secs prior to acetylcholine addition measured for 5 mins by Fluo-4-AM based calcium mobilization assay. The format is functional, cell-based.
Muscarinic acetylcholine receptor M2 (Homo sapiens, UniProt P08172), sequence (P08172 whole entry): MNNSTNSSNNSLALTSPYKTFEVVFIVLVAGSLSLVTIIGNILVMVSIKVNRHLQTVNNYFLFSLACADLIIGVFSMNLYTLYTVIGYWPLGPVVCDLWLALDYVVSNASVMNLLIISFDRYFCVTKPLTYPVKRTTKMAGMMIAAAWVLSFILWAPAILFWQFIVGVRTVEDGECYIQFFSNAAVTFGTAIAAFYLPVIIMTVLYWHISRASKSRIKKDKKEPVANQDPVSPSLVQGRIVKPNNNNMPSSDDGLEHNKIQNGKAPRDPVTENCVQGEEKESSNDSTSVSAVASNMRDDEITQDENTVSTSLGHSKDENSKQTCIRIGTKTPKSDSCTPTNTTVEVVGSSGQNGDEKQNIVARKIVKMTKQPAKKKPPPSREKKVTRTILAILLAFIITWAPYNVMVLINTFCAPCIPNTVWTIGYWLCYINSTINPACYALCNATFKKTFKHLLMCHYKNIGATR

Data set [20] has as its system Rattus norvegicus. As to the kind of experiment: Antipsychotic activity in ip dosed Sprague-Dawley rat assessed as reversal of amphetamine-induced hyperlocomotion after 90 mins. It counts as functional, organism-based.
In data set [21] the target is Sodium-dependent dopamine transporter (Homo sapiens) (UniProt Q01959). The experiment in a line: Binding affinity to human DAT at 10 uM by radioligand binding assay.
Sodium-dependent dopamine transporter (Homo sapiens), sequence (Q01959 whole entry): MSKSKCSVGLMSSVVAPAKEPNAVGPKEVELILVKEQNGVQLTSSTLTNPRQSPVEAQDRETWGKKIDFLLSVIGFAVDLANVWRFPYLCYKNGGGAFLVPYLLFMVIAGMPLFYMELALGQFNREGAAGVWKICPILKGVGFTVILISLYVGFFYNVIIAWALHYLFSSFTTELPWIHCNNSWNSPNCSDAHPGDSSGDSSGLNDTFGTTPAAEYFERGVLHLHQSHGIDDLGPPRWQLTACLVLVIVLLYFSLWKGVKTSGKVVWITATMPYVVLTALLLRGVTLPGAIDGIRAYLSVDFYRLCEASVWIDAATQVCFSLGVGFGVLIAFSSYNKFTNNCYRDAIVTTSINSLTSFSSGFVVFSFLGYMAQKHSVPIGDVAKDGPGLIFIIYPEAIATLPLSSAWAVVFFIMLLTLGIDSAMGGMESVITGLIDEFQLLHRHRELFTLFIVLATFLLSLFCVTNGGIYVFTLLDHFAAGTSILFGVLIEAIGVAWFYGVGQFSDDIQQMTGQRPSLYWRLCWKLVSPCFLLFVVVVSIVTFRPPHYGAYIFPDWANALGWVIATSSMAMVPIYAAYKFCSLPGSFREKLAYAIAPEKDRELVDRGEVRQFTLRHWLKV
Data set [22] is described as follows: Clearance in rat at 1 mg/kg, iv. The following applies: in vivo. It counts as ADME, organism-based. Further details: dose 1 mg/kg, route intravenous.
Data set [23] deals with Rattus norvegicus. As to the kind of experiment: Antipsychotic activity in Sprague-Dawley rat assessed as reversal of amphetamine-induced hyperlocomotion at 30 mg/kg, ip after 90 mins. It counts as functional. The following applies: route intraperitoneal.
The subject of data set [24] is Rattus norvegicus. The experiment in a line: Antipsychotic activity in Sprague-Dawley rat assessed as reversal of amphetamine-induced hyperlocomotion at 3 mg/kg, ip after 90 mins. It counts as functional. The following applies: route intraperitoneal.
Data set [25] can be described thus: Systemic plasma AUC in rat at 10 mg/kg, ip up to 6 hrs.
Data set [26] is described as follows: Mean residence time in rat at 1 mg/kg, iv. Further details: dose 1 mg/kg, route intravenous. The format is ADME, organism-based. The following applies: in vivo.
A short description of data set [27]: AUC in rat at 1 mg/kg, iv. It counts as ADME, organism-based. Further details: dose 1 mg/kg, route intravenous. The following applies: plasma.
Data set [28] relates to Rattus norvegicus. As to the kind of experiment: Antipsychotic activity in Sprague-Dawley rat assessed as reversal of amphetamine-induced hyperlocomotion at 100 mg/kg, ip after 90 mins. The format is functional. The following applies: route intraperitoneal.
For data set [29], the system named is Rattus norvegicus. The experiment in a line: Antipsychotic activity in Sprague-Dawley rat assessed as reversal of amphetamine-induced hyperlocomotion at 56.6 mg/kg, ip after 90 mins. The format is functional. The following applies: route intraperitoneal.
The next data set deals with Brain. As to the kind of experiment: Drug level in rat brain at 10 mg/kg, ip up to 6 hrs. It counts as ADME, organism-based. Further details: dose 10 mg/kg, route intraperitoneal. The following applies: in vivo.
Data set [30] in a line: Half life in rat at 1 mg/kg, iv. It counts as ADME, organism-based. Further details: dose 1 mg/kg, route intravenous. The following applies: in vivo.
Data set [31] is described as follows: Volume of distribution at steady state in rat at 1 mg/kg, iv. The format is ADME, organism-based. Further details: dose 1 mg/kg, route intravenous. The following applies: in vivo, read-out: Vdss.
Data set [32] has as its system Rattus norvegicus. The experiment in a line: Antipsychotic activity in Sprague-Dawley rat assessed as reversal of amphetamine-induced hyperlocomotion at 10 mg/kg, ip after 90 mins. The format is functional. The following applies: route intraperitoneal.
Data set [33] is filed under the species Rattus norvegicus. As to the kind of experiment: Binding affinity to rat GABAA receptor at 10 uM by radioligand binding assay.

Broadly, the EC50 is the concentration needed to bring the measured effect to its halfway point. The inhibition is how much of the control response was suppressed. Higher therefore signals a strong effect. The clearance is the rate of elimination divided by the concentration. High values mean efficient removal, low ones inefficient removal. A word on the AUC: it is the area under the concentration-time curve, a measure of exposure. A low value points to less exposure. The term MRT denotes the average time that molecules of a dose stay in the body. Broadly, the half-life is how long it takes for the measured level to halve.

Muscarinic acetylcholine receptor M1 (Homo sapiens, UniProt P11229), sequence (P11229 whole entry): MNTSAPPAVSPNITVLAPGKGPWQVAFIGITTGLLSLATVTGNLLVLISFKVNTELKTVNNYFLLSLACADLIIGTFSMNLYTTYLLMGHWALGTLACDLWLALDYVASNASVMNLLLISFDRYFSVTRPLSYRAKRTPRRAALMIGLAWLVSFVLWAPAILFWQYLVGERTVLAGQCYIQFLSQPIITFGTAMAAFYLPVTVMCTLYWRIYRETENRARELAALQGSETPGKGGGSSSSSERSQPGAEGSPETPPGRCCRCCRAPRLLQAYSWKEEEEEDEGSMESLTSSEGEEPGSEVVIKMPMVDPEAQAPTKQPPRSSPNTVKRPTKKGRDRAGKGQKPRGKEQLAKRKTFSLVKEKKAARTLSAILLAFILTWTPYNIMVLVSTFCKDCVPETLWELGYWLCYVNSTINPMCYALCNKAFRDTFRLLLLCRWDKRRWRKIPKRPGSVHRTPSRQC
Muscarinic acetylcholine receptor M1 (Rattus norvegicus, UniProt P08482), sequence (P08482 whole entry): as the sequence (P11229 whole entry) above, with A5V, T254S, P309S, R320K, A337G, I413V counted along it
Muscarinic acetylcholine receptor M2 (Rattus norvegicus, UniProt P10980), sequence (P10980 whole entry): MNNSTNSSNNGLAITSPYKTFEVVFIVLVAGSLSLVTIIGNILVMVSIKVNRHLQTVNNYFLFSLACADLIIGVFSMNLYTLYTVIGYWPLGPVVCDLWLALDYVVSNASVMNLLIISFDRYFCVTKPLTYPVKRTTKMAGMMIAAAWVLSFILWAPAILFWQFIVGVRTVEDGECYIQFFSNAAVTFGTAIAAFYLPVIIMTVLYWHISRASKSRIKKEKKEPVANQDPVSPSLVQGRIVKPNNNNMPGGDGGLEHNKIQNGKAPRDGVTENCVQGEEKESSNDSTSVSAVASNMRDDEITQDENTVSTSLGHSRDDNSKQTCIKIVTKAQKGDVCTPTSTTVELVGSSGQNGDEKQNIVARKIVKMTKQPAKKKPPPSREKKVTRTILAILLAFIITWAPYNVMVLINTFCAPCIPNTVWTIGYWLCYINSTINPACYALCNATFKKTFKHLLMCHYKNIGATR
Muscarinic acetylcholine receptor M1 (Homo sapiens), sequence (P11229 whole entry): as the sequence (P11229 whole entry) above
Muscarinic acetylcholine receptor M1 (Rattus norvegicus), sequence (P08482 whole entry): as the sequence (P11229 whole entry) above, with A5V, T254S, P309S, R320K, A337G, I413V counted along it
Muscarinic acetylcholine receptor M2 (Rattus norvegicus), sequence (P10980 whole entry): as the sequence (P10980 whole entry) above
Muscarinic acetylcholine receptor M2 (Homo sapiens), sequence (P08172 whole entry): as the sequence (P08172 whole entry) above

As to `Cc1nc2sc(C(=O)NC3CC3)c(N)c2c(C)c1Cl`, the EC50 was 640 nM in data set [1]; 940 nM in data set [2]; 77 nM in [7]; more than 30000 nM in [8]; more than 30000 nM in [10]; more than 30000 nM in data set [12]. In addition, the EC50 was 970 nM in [13], more than 30000 nM in data set [16], 147 nM in data set [18] and 550 nM in data set [19]. Moreover, the %max in [3] was determined as 64%; in data set [5], 94%; in [6], 26%; in [11] it was 33%; in data set [14], 58%. Further, the values for the fold change (FC) in data set [4] and in data set [9] were 54.1 and 224, respectively. The values for the Fu in the data set on Plasma [15] and with Plasma [17] were 1.1% and 6.4%, respectively.
For `Cc1nc2sc(C(=O)NCc3ccncc3)c(N)c2c(C)c1Cl`, the EC50 in data set [1] was more than 30000 nM; in data set [2], more than 30000 nM; in data set [7] it was 56 nM; in [8] it was more than 30000 nM; in data set [10] it was more than 30000 nM; in data set [12] it was more than 30000 nM. Besides, the EC50 in [13] was more than 30000 nM; in data set [16], more than 30000 nM; in [18], 176 nM; in [19] it was more than 30000 nM. The Activity result in the data set with Rattus norvegicus [20] is “Dose-dependent effect”; in the data set on Rattus norvegicus [23] it was 47.9%; in the data set with Rattus norvegicus [24], 18.7%; in the data set with Rattus norvegicus [28], 57.3%; in the data set with Rattus norvegicus [29], 53.7%; in the data set with Rattus norvegicus [32] it was 25.7%. In addition, the inhibition in data set [21] amounted to 74%; in the data set filed under Rattus norvegicus [33], 64%. The clearance in [22] came out at 104 mL/min/kg. Moreover, the exposure (AUC) at 6 h in [25] came out at 3880 ng·h/mL. Moreover, the fold change (FC) amounted to 49.6 in data set [4] and 106 in data set [9]. For the same molecule, the %max in data set [5] was found to be 94.1%. Also, the mean residence time (MRT) in [26] is 27.5 min. The exposure (AUC) in data set [27] came out at 175 ng·h/mL. The molecule further came in with a Drug uptake in the data set with Brain of 3410 ng/g. In data set [30], this molecule yielded a half-life of 17.5 min. Moreover, in [31], the Vd is 2.6 L/kg. The same molecule gave a Fu with Plasma [17] of 1.7%.

The values are drawn from ChEMBL document CHEMBL2311451, “Discovery of a selective M₄ positive allosteric modulator based on the 3-amino-thieno[2,3-b]pyridine-2-carboxamide scaffold: development of ML253, a potent and brain penetrant compound that is active in a preclinical model of schizophrenia” (Bioorg Med Chem Lett, 2013).
